Source: US20140135310A1, “SULPHONAMIDE DERIVATIVES OF ALICYCLIC AMINES FOR THE TREATMENT OF CENTRAL NERVOUS SYSTEM DISEASES” (Adamed Sp. z o.o., priority 2011, published 2014)

Columns and labels:
[1] = molecular target: dopaminergic receptors D2 (Homo sapiens, UniProt P14416); experiment: Radioligand binding assay, dopaminergic D2 receptors; details: binding assay, test compound 1×10^−6 M
Method in brief: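 Radioligand displacement was measured by scintillation counting, with non-specific binding defined in the presence of excess unlabelled ligand. Competition curves were fitted to the Hill equation to give IC50, and Ki was derived by the Cheng–Prusoff equation.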

[2] = molecular target: dopaminergic receptors D3 (Homo sapiens, UniProt P35462); experiment: Radioligand binding assay, dopaminergic D3 receptors; details: test compound 1×10^−6 M
Method in brief: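 Competition radioligand binding at human D2, D3 and D4.4 receptors, detected by scintillation counting; nonspecific binding defined with excess unlabelled ligand. Results as percent inhibition of control specific binding; IC50 by Hill-equation nonlinear regression; Ki via Cheng-Prusoff, with radioligand KD from Scatchard plot.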

[3] = molecular target: T1, 5-HT1A receptor (rat hippocampus) (Rattus norvegicus, UniProt P19327); experiment: Radioligand binding assay, serotoninergic 5-HT1A receptors; details: binding assay result in %, Table 5a;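 further: test compound at 1 µM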
T1 construct: hippocampus; from tissue; host or cells: rat hippocampus
T1 sequence (P19327 1-422): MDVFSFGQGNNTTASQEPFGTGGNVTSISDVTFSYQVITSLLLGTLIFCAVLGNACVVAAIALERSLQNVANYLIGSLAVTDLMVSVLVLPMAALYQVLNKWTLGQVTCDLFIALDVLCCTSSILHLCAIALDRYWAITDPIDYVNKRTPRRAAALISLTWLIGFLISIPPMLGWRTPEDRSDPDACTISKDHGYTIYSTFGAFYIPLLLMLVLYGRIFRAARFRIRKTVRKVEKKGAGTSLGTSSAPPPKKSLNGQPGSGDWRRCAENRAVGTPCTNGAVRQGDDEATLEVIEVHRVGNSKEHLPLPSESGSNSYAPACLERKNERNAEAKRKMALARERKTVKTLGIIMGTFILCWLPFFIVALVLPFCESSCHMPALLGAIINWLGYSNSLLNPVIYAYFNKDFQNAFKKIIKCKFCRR

[4] = molecular target: T2, 5-HT2A receptor (Homo sapiens, UniProt P28223); experiment: Radioligand binding assay, serotoninergic 5-HT2A receptors; details: binding assay result in %, Table 5a
T2 construct: purchased PerkinElmer
Method in brief: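 Radioligand competition binding with scintillation counting; nonspecific binding defined by excess unlabelled ligand. Data as percent inhibition of control specific binding. IC50 by Hill-equation fit of competition curves; Ki by Cheng-Prusoff, with radioligand Kd from Scatchard plot.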

[5] = molecular target: T3, 5-HT6 receptor (Homo sapiens, UniProt P50406); experiment: Radioligand binding assay, serotoninergic 5-HT6 receptors; details: binding assay result in %, Table 5a;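 further: test compound at 1 µM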
T3 construct: purchased PerkinElmer
Method in brief: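 Values are Ki from Cheng–Prusoff, taking IC50 from Hill nonlinear regression of competition curves and KD from a Scatchard plot. Specific binding was total minus binding with excess unlabelled ligand. Radioligand displacement was detected by scintillation counting, and data were also reported as percent of control specific binding.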

[6] = molecular target: T4, 5-HT7 receptor (Homo sapiens, UniProt P34969); experiment: Radioligand binding assay, serotoninergic 5-HT7 receptors; details: binding assay result in %, Table 5a;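 further: test compound at 1 µM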
T4 construct: purchased PerkinElmer
Method in brief: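 Competition binding at human 5-HT7 receptors with a radioligand, detected by scintillation counting; non-specific binding was defined with excess unlabelled ligand. IC50 came from Hill-equation fits of competition curves, and Ki from Cheng–Prusoff using radioligand concentration and Scatchard-derived KD.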

[7] = system: α1 adrenergic receptors (rat cerebral cortex); experiment: Radioligand binding assay, adrenergic α1 receptors; details: test compound 1×10^−6 M
Method in brief: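 Values derive from radioligand displacement, with non-specific binding defined by excess cold ligand and detection by scintillation. Hill-fit IC50s were converted to Ki via Cheng-Prusoff using Scatchard-derived Kd; percent inhibition of control specific binding also reported.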

[8] = molecular target: T5, serotonin transporter (SERT) (Homo sapiens, UniProt P31645); experiment: Radioligand binding assay, serotonin transporter (SERT); details: binding assay, test compound 1×10^−6 M
T5 construct: expressed in transfected cells; host or cells: CHO cells
Method in brief: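 Radioligand competition binding with scintillation detection; specific binding is total minus binding under excess unlabelled ligand. Reported as % of control specific binding or % inhibition; IC50 from Hill-equation non-linear regression of competition curves, and Ki via Cheng-Prusoff using radioligand concentration and Scatchard-derived KD.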

T3 sequence (P50406 whole entry): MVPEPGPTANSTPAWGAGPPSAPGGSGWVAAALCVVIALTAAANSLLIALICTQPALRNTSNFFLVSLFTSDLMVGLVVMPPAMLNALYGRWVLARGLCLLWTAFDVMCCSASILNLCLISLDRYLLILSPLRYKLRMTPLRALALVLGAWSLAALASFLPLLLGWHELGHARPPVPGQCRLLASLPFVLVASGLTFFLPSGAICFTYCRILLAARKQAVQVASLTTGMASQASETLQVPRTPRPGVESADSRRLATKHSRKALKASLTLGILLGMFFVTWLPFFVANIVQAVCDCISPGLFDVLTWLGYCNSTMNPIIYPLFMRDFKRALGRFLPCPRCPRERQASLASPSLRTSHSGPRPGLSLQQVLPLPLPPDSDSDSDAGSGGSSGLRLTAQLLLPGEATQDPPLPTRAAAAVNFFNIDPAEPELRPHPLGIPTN
T4 sequence (P34969 whole entry): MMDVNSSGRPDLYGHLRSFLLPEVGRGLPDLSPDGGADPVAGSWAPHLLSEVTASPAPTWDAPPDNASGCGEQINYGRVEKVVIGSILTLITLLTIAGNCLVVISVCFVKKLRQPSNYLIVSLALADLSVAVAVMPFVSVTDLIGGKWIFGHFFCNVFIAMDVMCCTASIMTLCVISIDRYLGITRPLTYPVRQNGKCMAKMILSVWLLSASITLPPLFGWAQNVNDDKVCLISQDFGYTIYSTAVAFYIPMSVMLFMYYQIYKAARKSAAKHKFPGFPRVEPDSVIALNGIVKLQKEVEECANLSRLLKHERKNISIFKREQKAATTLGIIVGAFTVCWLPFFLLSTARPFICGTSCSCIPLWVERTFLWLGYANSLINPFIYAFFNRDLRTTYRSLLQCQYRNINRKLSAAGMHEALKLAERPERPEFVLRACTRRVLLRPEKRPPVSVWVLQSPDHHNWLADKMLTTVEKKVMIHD
T2 sequence (P28223 whole entry): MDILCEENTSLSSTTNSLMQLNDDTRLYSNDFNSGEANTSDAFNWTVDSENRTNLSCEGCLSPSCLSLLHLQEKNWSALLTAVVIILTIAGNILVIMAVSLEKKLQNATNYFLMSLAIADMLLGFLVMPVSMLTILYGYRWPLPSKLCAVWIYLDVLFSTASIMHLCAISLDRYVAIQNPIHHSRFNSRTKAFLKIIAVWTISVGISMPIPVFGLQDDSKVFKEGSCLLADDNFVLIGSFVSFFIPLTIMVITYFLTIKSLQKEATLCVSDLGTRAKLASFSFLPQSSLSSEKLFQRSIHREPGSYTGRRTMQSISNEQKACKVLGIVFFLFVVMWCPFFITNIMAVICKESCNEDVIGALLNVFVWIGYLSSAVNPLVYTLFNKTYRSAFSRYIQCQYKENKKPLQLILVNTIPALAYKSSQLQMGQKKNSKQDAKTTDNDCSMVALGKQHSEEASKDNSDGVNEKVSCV
T5 sequence (P31645 whole entry): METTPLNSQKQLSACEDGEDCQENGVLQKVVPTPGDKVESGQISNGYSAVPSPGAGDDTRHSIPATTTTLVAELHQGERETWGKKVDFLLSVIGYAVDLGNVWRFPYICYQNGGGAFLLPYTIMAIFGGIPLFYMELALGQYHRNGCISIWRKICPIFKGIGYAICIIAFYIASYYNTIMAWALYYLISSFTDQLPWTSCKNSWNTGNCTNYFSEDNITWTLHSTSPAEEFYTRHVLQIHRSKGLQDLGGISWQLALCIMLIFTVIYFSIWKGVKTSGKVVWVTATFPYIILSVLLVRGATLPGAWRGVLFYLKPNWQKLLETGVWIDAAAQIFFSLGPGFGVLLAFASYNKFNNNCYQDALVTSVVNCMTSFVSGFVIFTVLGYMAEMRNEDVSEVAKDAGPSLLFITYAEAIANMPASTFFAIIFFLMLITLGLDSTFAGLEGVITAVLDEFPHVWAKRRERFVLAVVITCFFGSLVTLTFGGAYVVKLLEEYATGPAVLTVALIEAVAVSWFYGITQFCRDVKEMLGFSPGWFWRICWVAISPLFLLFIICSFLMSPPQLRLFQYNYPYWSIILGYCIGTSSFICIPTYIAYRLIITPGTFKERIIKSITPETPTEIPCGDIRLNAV
Sequence of dopaminergic receptors D2 (P14416 whole entry): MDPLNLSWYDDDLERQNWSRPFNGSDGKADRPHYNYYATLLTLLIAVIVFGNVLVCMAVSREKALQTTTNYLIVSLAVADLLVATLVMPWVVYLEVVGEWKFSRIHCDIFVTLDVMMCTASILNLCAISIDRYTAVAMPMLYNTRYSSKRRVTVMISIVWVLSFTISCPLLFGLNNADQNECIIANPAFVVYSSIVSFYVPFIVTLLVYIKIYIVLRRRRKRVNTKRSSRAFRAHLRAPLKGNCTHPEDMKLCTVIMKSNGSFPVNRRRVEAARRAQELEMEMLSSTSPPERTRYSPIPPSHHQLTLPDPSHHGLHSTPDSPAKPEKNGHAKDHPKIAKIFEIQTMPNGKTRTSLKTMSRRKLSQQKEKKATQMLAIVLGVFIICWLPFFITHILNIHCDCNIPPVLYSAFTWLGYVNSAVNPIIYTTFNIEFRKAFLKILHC
Sequence of dopaminergic receptors D3 (P35462 whole entry): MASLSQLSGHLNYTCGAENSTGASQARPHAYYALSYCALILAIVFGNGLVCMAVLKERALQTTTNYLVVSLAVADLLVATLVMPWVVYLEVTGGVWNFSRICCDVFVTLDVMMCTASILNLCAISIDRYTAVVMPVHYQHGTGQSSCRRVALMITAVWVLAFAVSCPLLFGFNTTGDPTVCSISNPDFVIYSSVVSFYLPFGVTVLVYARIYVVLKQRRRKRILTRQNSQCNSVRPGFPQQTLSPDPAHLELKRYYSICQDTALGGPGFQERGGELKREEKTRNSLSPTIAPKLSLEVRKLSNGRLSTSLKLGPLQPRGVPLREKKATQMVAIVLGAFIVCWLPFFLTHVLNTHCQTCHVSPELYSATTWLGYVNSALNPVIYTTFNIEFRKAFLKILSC

Row | SMILES | inhibition at 1 µM [1] [%] | inhibition at 1 µM [2] [%] | inhibition at 1 µM [3] [%] | inhibition at 1 µM [4] [%] | inhibition at 1 µM [5] [%] | inhibition at 1 µM [6] [%] | α1 [%] [7] [%] | inhibition at 1 µM [8] [%] | D2 [%] [1] [%] | D3 [%] [2] [%] | 5-HT1A [%] [3] [%] | 5-HT2A [%] [4] [%] | 5-HT6 [%] [5] [%] | 5-HT7 [%] [6] [%] | SERT [%] [8] [%]
1 | O=S(=O)(NCC1CCN(CCOc2cccc3ccccc23)C1)c1ccc(F)c(Cl)c1 (stereo not shown) [Compound 277, 3-Chloro-4-fluoro-N-[[1-[2-(1-naphthyloxy)ethyl]pyrrolidin-3-yl]methyl]benzenesulphonamide] | 34 | 90 | 85 | 85 | 93 | 108 | 21 | 68 | – | – | – | – | – | – | –
2 | Cc1ccc(S(=O)(=O)NCC2CCN(CCOc3cccc4c3OCCO4)C2)cc1 (stereo not shown) [Compound 291, N-[[1-[2-(2,3-Dihydro-1,4-benzodioxin-5-yloxy)ethyl]pyrrolidin-3-yl]methyl]-4-methyl-benzenesulphonamide] | 29 | 33 | 94 | 63 | 19 | 80 | 66 | 66 | – | – | – | – | – | – | –
3 | O=S(=O)(NCC1CN(CCOc2cccc3ccccc23)C1)c1ccc2cc(Cl)ccc2c1 [Compound 165, 6-Chloro-N-[[1-[2-(1-naphthyloxy)ethyl]azetidin-3-yl]methyl]naphthalene-2-sulphonamide] | 66 | 100 | 87 | 99 | 97 | 105 | 15 | 111 | – | – | – | – | – | – | –
4 | O=S(=O)(NCC1CN(CCOc2cccc3ccccc23)C1)c1cc2ccccc2s1 [Compound 163, N-[[1-[2-(1-Naphthyloxy)ethyl]azetidin-3-yl]methyl]benzothiophene-2-sulphonamide] | 73 | 99 | 88 | 99 | 87 | 88 | 27 | 45 | – | – | – | – | – | – | –
5 | Cc1c(S(=O)(=O)NCC2CN(CCOc3cccc4c3OCCO4)C2)sc2ccc(Cl)cc12 [Compound 175, 5-Chloro-N-[[1-[2-(2,3-dihydro-1,4-benzodioxin-5-yloxy)ethyl]azetidin-3-yl]methyl]-3-methyl-benzothiophene-2-sulphonamide] | 68 | 78 | 75 | 105 | 95 | 92 | 50 | 19 | – | – | – | – | – | – | –
6 | O=S(=O)(NC1CCN(CCCc2c[nH]c3ccc(Cl)cc23)C1)c1ccc(Cl)cc1 (stereo not shown) [Compound 85, 4-Chloro-N-[1-[3-(5-chloro-1H-indol-3-yl)propyl]pyrrolidin-3-yl]-benzene-sulphonamide] | 45 | 75 | 102 | 64 | 82 | 89 | 9 | 70 | – | – | – | – | – | – | –
7 | Cc1c(S(=O)(=O)NCC2CCN(CCOc3cccc4ccccc34)C2)sc2ccc(Cl)cc12 (stereo not shown) [Compound 272, 5-Chloro-3-methyl-N-[[1-[2-(1-naphthyloxy)ethyl]pyrrolidin-3-yl]methyl]benzothiophene-2-sulphonamide] | 40 | 88 | 63 | 82 | 67 | 88 | −7 | 20 | – | – | – | – | – | – | –
8 | O=S(=O)(NC1CCN(CCOc2cccc3[nH]ccc23)CC1)c1ccc2ccccc2c1 [Compound 61, N-[1-[2-(1H-Indol-4-yloxy)ethyl]-4-piperidine]naphthalene-2-sulphonamide] | – | – | – | – | – | – | 79 | – | 39 | 83 | 77 | 92 | 71 | 95 | 43
